From patent publication US8691775B2, “Use of drugs that activate P2Y receptors to enhance synaptogenesis” (Back Bay Scientific, LLC, priority 2010, dated 2014)

Experiments:
brain dendritic spines = assay: Brain dendritic spines in laboratory animals injected intraperitoneally with test compound; type: in vivo; conditions: intraperitoneal injection after 6 weeks of diet
Excerpt: The laboratory animals are fed a food composition with or without a synthetic diet enriched with uridine, DHA and choline for 6 weeks, and are then intraperitoneally injected with a composition comprising the test compound.

[1] = system: PSD-95 protein in PC12 cells; assay: Level of PSD-95 in PC12 cells incubated with test compound; type: cell-based; conditions: incubation 2 or 4 days
Excerpt: Postsynaptic protein PSD-95 is a member of the membrane-associated guanylate kinase (MAGUK) family. The protein is almost exclusively located in the postsynaptic density of neurons and is involved in anchoring synaptic proteins. The inventor hypothesized that active agents that increase the level of the PSD-95 protein in cultured cells may be screened for their ability to activate P2Y receptors in animal models.
PC12 cells, a cell line ultimately derived from neural cells, are maintained in Minimal Essential Medium (MEM; Invitrogen, Carlsbad, Calif.) supplemented with 10% fetal bovine serum (FBS) at 37° C. Experimental incubations are for 2 or 4 days in medium with or without test compounds.
The activity of each test compound is assessed by determining the effect of each test compound on the level of PSD-95 in the cells.

[2] = rats; cited from earlier work

For CCCCCCSc1nc(N)c2ncn([C@@H]3O[C@H](COP(=O)(O)O)[C@@H](O)[C@H]3O)c2n1 [2-(hexylthio) (HT)-AMP], the “level of brain dendritic spines in laboratory animals” value (“level of brain dendritic spines” below) (brain dendritic spines) was “effective” and the “level of the PSD-95 protein in tissue culture” value (“level of the PSD-95 protein” below) [1] was “effective”.
For CSc1nc(N)c2ncn([C@@H]3O[C@H](COP(=O)(O)OP(=O)(O)OP(=O)(O)O)[C@@H](O)[C@H]3O)c2n1 [2-MeSATP], the “level of brain dendritic spines” value (brain dendritic spines) was “effective” and the “level of the PSD-95 protein” value [1] was “effective”.
For CSc1nc(N)c2ncn([C@@H]3O[C@H](COP(=O)([O-])OP(=O)([O-])[O-])[C@@H](O)[C@H]3O)c2n1.[Na+].[Na+].[Na+] [2-Methylthio-ADP trisodium salt], the “level of brain dendritic spines” value (brain dendritic spines) was “effective” and the “level of the PSD-95 protein” value [1] was “effective”.
In the case of O=c1ccn([C@@H]2O[C@H](COP(=O)([O-])OP(=O)([O-])OP(=O)([O-])[O-])[C@@H](O)[C@H]2O)c(=S)[nH]1.[Na+].[Na+].[Na+].[Na+] [2-ThioUTP tetrasodium salt], the “level of brain dendritic spines” value (brain dendritic spines) is reported as “effective” and the “level of the PSD-95 protein” value [1] is reported as “effective”.
In the case of O=c1ccn([C@@H]2O[C@H](COP(=O)(O)OP(=O)(O)OP(=O)(O)O)[C@@H](O)[C@H]2O)c(=S)[nH]1 [2-thio-UTP], the “level of brain dendritic spines” value (brain dendritic spines) is reported as “effective” and the “level of the PSD-95 protein” value [1] is reported as “effective”.
In the case of N[C@@H]1[C@H](O)[C@@H](COP(=O)(O)OP(=O)(O)OP(=O)(O)O)O[C@H]1n1ccc(=O)[nH]c1=O [2′-deoxy-2′-amino-UTP], the “level of brain dendritic spines” value (brain dendritic spines) is reported as “effective” and the “level of the PSD-95 protein” value [1] is reported as “effective”.
For Nc1ncnc2c1ncn2[C@@H]1O[C@H](COP(=O)(O)OP(=O)(O)O)[C@@H](O)[C@H]1O [ADP], the “level of brain dendritic spines” value (brain dendritic spines) was “effective” and the “level of the PSD-95 protein” value [1] was “effective”.
In the case of Nc1ncnc2c1ncn2[C@@H]1O[C@H](COP(=O)(O)OP(=O)([O-])OP(=O)([O-])O)[C@@H](O)[C@H]1O.[Na+].[Na+] [ATP disodium salt], the “level of the PSD-95 protein” value [1] is reported as “effective”.
In the case of Nc1ncnc2c1ncn2[C@@H]1O[C@H](COP(=O)(O)OP(=O)(O)OP(=O)(O)OP(=O)(O)OC[C@H]2O[C@@H](n3cnc4c(N)ncnc43)[C@H](O)[C@@H]2O)[C@@H](O)[C@H]1O [Ap4A], the “level of brain dendritic spines” value (brain dendritic spines) is reported as “effective” and the “level of the PSD-95 protein” value [1] is reported as “effective”.
With Nc1ncnc2c1ncn2[C@@H]1O[C@H](COP(=O)(O)OP(=O)(O)OP(=O)(O)OP(=O)(O)OC[C@H]2O[C@@H](n3ccc(=O)[nH]c3=O)[C@H](O)[C@@H]2O)[C@@H](O)[C@H]1O [Ap4U] the “level of brain dendritic spines” value (brain dendritic spines) was “effective” and the “level of the PSD-95 protein” value [1] was “effective”.
For Nc1ccn([C@@H]2O[C@H](COP(=O)(O)OP(=O)(O)OP(=O)(O)O)[C@@H](O)[C@H]2O)c(=O)n1 [CTP, cytidine-triphosphate], the “level of brain dendritic spines” value (brain dendritic spines) was “effective” and the “level of the PSD-95 protein” value [1] was “effective”.
For Nc1nc2c(ncn2[C@@H]2O[C@H](COP(=O)(O)OP(=O)(O)OP(=O)(O)O)[C@@H](O)[C@H]2O)c(=O)[nH]1 [GTP], the “level of brain dendritic spines” value (brain dendritic spines) was “effective” and the “level of the PSD-95 protein” value [1] was “effective”.
In the case of O=c1ccn([C@@H]2O[C@H](COP(=O)(O)OP(=O)(O)OP(=O)(O)OP(=O)(O)OC[C@H]3O[C@@H](n4ccc(=O)[nH]c4=O)[C@H](O)[C@@H]3O)[C@@H](O)[C@H]2O)c(=O)[nH]1 [INS365], the “level of brain dendritic spines” value (brain dendritic spines) is reported as “effective” and the “level of the PSD-95 protein” value [1] is reported as “effective”.
In the case of O=c1[nH]cnc2c1ncn2[C@@H]1O[C@H](COP(=O)(O)OP(=O)(O)OP(=O)(O)O)[C@@H](O)[C@H]1O [ITP], the “level of brain dendritic spines” value (brain dendritic spines) is reported as “effective” and the “level of the PSD-95 protein” value [1] is reported as “effective”.
In the case of CSc1nc(N)c2ncn([C@H]3[C@H](O)[C@H](O)[C@]4(COP(=O)(O)OP(=O)(O)O)C[C@H]34)c2n1 [MRS 2365], the “level of brain dendritic spines” value (brain dendritic spines) is reported as “effective” and the “level of the PSD-95 protein” value [1] is reported as “effective”.
For O=c1ccn([C@@H]2O[C@H](COP(=O)([O-])OP(=O)([O-])O[C@H]3O[C@H](CO)[C@@H](O)[C@H](O)[C@H]3O)[C@@H](O)[C@H]2O)c(=S)[nH]1.[Na+].[Na+] [MRS 2690], the “level of brain dendritic spines” value (brain dendritic spines) was “effective” and the “level of the PSD-95 protein” value [1] was “effective”.
With N[C@@H]1[C@H](O)[C@@H](COP(=O)(O)OP(=O)(O)OP(=O)(O)O)O[C@H]1n1ccc(=O)[nH]c1=S [MRS 2698] the “level of brain dendritic spines” value (brain dendritic spines) was “effective” and the “level of the PSD-95 protein” value [1] was “effective”.
In the case of O=C(Cn1c(=O)ccn(C2OC(COP(=O)(O)OP(=O)(O)O)C(O)C2O)c1=O)c1ccccc1 (stereo not shown) [PSB 0474], the “level of brain dendritic spines” value (brain dendritic spines) is reported as “effective” and the “level of the PSD-95 protein” value [1] is reported as “effective”.
With O=c1ccn([C@@H]2O[C@H](COP(=O)(O)OP(=O)(O)O)[C@@H](O)[C@H]2O)c(=O)[nH]1 [UDP, uridine 5′-diphosphate] the “level of brain dendritic spines” value (brain dendritic spines) was “effective” and the “level of the PSD-95 protein” value [1] was “effective”.
With O=c1ccn([C@@H]2O[C@H](COP(=O)(O)OP(O)(O)=S)[C@@H](O)[C@H]2O)c(=O)[nH]1 [UDPβS, Uridine β-thiodiphosphate] the “level of brain dendritic spines” value (brain dendritic spines) was “effective” and the “level of the PSD-95 protein” value [1] was “effective”.
In the case of O=c1ccn([C@@H]2O[C@H](COP(=O)(O)OP(=O)(O)OP(=O)(O)O)[C@@H](O)[C@H]2O)c(=O)[nH]1 [UTP, uridine 5′-triphosphate], the “level of brain dendritic spines” value (brain dendritic spines) is reported as “effective” and the “level of the PSD-95 protein” value [1] is reported as “effective”.
For O=c1ccn(C2OC(COP(=O)([O-])OP(=O)([O-])OP(=O)([O-])S)C(O)C2O)c(=O)[nH]1.[Na+].[Na+].[Na+] (stereo not shown) [UTPγS trisodium salt], the “level of brain dendritic spines” value (brain dendritic spines) was “effective” and the “level of the PSD-95 protein” value [1] was “effective”.
With O=c1ccn([C@@H]2O[C@H](COP(=O)(O)OP(=O)(O)OP(O)(O)=S)[C@@H](O)[C@H]2O)c(=O)[nH]1 [UTPγS, uridine γ-thiophosphate] the “level of brain dendritic spines” value (brain dendritic spines) was “effective” and the “level of the PSD-95 protein” value [1] was “effective”.
In the case of Nc1ccn([C@H]2C[C@H](O)[C@@H](COP(=O)(O)OP(=O)(O)OP(=O)(O)OP(=O)(O)OC[C@H]3O[C@@H](n4ccc(=O)[nH]c4=O)[C@H](O)[C@@H]3O)O2)c(=O)n1 [denufosol], the “level of brain dendritic spines” value (brain dendritic spines) is reported as “effective” and the “level of the PSD-95 protein” value [1] is reported as “effective”.
For O=c1ccn([C@@H]2O[C@H](CO)[C@@H](O)[C@H]2O)c(=O)[nH]1 [uridine], the “uridine entering the liver via the portal vein metabolized in a single pass” value [2] is given as “more than 90%”.
With Nc1ncnc2c1ncn2[C@@H]1O[C@H](COP(=O)(O)CP(=O)([O-])OP(=O)([O-])[O-])[C@@H](O)[C@H]1O.[Na+].[Na+].[Na+] [α,β-Methyleneadenosine 5′-triphosphate trisodium salt] the “level of brain dendritic spines” value (brain dendritic spines) was “effective” and the “level of the PSD-95 protein” value [1] was “effective”.
With Nc1ncnc2c1ncn2[C@@H]1O[C@H](COP(=O)(O)CP(=O)(O)OP(=O)(O)O)[C@@H](O)[C@H]1O [α,β-methylene ATP] the “level of brain dendritic spines” value (brain dendritic spines) was “effective” and the “level of the PSD-95 protein” value [1] was “effective”.
With BzATP triethylammonium salt the “level of brain dendritic spines” value (brain dendritic spines) was “effective” and the “level of the PSD-95 protein” value [1] was “effective”.
For diadenosine pentaphosphate, the “level of brain dendritic spines” value (brain dendritic spines) was “effective” and the “level of the PSD-95 protein” value [1] was “effective”.
For diuridine triphosphate, the “level of brain dendritic spines” value (brain dendritic spines) was “effective” and the “level of the PSD-95 protein” value [1] was “effective”.
